Measurements as given in publication PMC6433232, “Targeting mitochondria in cancer therapy could provide a basis for the selective anti-cancer activity” (PLoS ONE, 2019).
Where “and” joins values, the source holds several entries; their conditions need not be identical. Identical values can stand only once. Like-named read-outs stand apart in the source and are kept apart here.

Tested on: primary acute myeloid leukemia (AML) cells obtained from patients
Assay: Kinase inhibitor library screening with and without NSC130362, primary AML cells
Type: cell-based, Human
[1] = ratio of EC50 for inhibitor to EC50 for inhibitor/NSC130362 combination, NSC130362 10 μM
[2] = ratio of EC50 for inhibitor to EC50 for inhibitor/NSC130362 combination, NSC130362 10 μM, Screen N 2

SMILES | EC50 decrease, fold (Screen N 1) [1] [fold] | EC50 decrease, fold (Screen N 2) [2] [fold] | EC50 decrease, fold (Screen N 3) [1] | EC50 decrease, fold (Screen N 2)
COc1cc2nccc(Oc3ccc(NC(=O)NC4CC4)c(Cl)c3)c2cc1C(N)=O [Lenvatinib] | 1.9 | 1.0 | 1.5 fold | 
Cn1cc(-c2ccc3nnc(Sc4ccc5ncccc5c4)n3n2)cn1 [SGX-523] | 1.6 | 1.0 | 66.4 fold | 
Cc1c[nH]c(-c2cnc(NCCNc3ccc(C#N)cn3)nc2-c2ccc(Cl)cc2Cl)n1 [CHIR-99021] | 1.0 | 1.0 | 1.0 fold | 
Cc1[nH]c2ccccc2c1CCNCc1ccc(/C=C/C(=O)NO)cc1 [Panobinostat] | 9.3 | 1.2 | 0.0014 fold | 
CC(C)(C)c1cc(NC(=O)Nc2ccc(-c3cn4c(n3)sc3cc(OCCN5CCOCC5)ccc34)cc2)no1 [Quizartinib (AC220)] |  | 1.0 |  | 
CC(=O)c1c(C)c2cnc(Nc3ccc(N4CCNCC4)cn3)nc2n(C2CCCC2)c1=O [Palbociclib] | 1.6 | 1.0 | 1.8 fold | 
Cc1ccc(C(=O)Nc2ccc(CN3CCN(C)CC3)c(C(F)(F)F)c2)cc1C#Cc1cnc2cccnn12 [Ponatinib (AP24534)] |  |  |  | 0.9 fold and 1.1 fold
CS(=O)(=O)c1ccc(C(=O)Nc2ccc(Cl)c(-c3ccccn3)c2)c(Cl)c1 [Vismodegib (GDC-0449)] | 1.0 | 1.0 | 1.0 fold | 
COCCn1c2c([n+](Cc3cnccn3)c1C)C(=O)c1ccccc1C2=O [YM-155] | 10.9 | 4.4 | 1.0 fold | 
Nc1ncnc2c1c(-c1cccc(OCc3ccccc3)c1)cn2C1CC(CN2CCCC2)C1 (centres unmarked) [NVP-ADW742] | 3.1 | 1.0 | 1.0 fold | 
Cc1ccc(Nc2nccc(N(C)c3ccc4c(C)n(C)nc4c3)n2)cc1S(N)(=O)=O [Pazopanib (GW786034)] | 1.0 | 1.0 | 193.3 fold and 170.6 fold | 
CN(NC(=O)CC(=O)NN(C)C(=S)c1ccccc1)C(=S)c1ccccc1 [Elesclomol] | 1.1 | 302.2 | 1.1 fold | 
Cn1cnc2c(F)c(Nc3ccc(Br)cc3Cl)c(C(=O)NOCCO)cc21 [Selumetinib (AZD6244)] | 6.5 | 1.5 | 1.0 fold | 
CC1(C)CNc2cc(NC(=O)c3cccnc3NCc3ccncc3)ccc21 [Motesanib (AMG-706)] | 1.0 | 1.0 | 1.0 fold | 
Cc1[nH]c(/C=C2\C(=O)Nc3ccc(S(=O)(=O)Cc4c(Cl)cccc4Cl)cc32)c(C)c1C(=O)N1CCC[C@@H]1CN1CCCC1 [PHA-665752] | 1.1 | 1.0 | 0.226 fold | 
Oc1nc(-c2ccc(C(F)(F)F)cc2)nc2c1CSCC2 [XAV-939] | 6.5 | 1.0 | 1.0 fold | 
CCCCCCCCCCCCc1ccc(S(=O)(=O)Nc2nncs2)cc1 [PHT-427] | 1.0 | 1.0 | 1.0 fold | 
C[C@H](NC(=O)Cc1cc(F)cc(F)c1)C(=O)N[C@@H]1C(=O)N(C)c2ccccc2-c2ccccc21 [DBZ] | 0.951 | 1.0 | 0.374 fold | 
C=CC(=O)Nc1cc2c(Nc3ccc(F)c(Cl)c3)ncnc2cc1OCCCN1CCOCC1 [Canertinib (CI-1033)] | 2.8 | 0.7 | 424.3 fold | 
Cn1cc(-c2ccc3nnc(C(F)(F)c4ccc5ncccc5c4)n3n2)cn1 [JNJ-38877605] | 7.6 | 1.0 | 0.00829 fold | 

SMILES | EC50 decrease, fold (Screen N 1) [1] [fold] | EC50 decrease, fold (Screen N 2) [2] [fold] | EC50 decrease, fold (Screen N 3) [1] | EC50 decrease, fold (Screen N 2)
COc1cc2c(Oc3ccc4[nH]c(C)cc4c3F)ncnc2cc1OCCCN1CCCC1 [Cediranib (AZD2171)] | 8.3 | 1.0 | 0.00538 fold | 
CNC(=O)c1c(F)cccc1Nc1nc(Nc2cc3c(cc2OC)CCN3C(=O)CN(C)C)nc2[nH]ccc12 [GSK-1838705A] | 257.7 | 1.0 | 522.0 fold | 
Cc1cn(-c2cc(NC(=O)c3ccc(C)c(Nc4nccc(-c5cccnc5)n4)c3)cc(C(F)(F)F)c2)cn1 [Nilotinib] |  | 1.0 | 1.0 fold | 
CCCS(=O)(=O)Nc1ccc(F)c(C(=O)c2c[nH]c3ncc(-c4ccc(Cl)cc4)cc23)c1F [Vemurafenib (PLX-4032)] | 1.0 | 1.0 |  | 
O=C(Nc1ccc2[nH]nc(-c3ccncc3)c2c1)[C@@H]1CCN(CC(=O)N2CCN(c3ccc(-c4ncccn4)cc3)CC2)C1 [SCH-772984] |  | 0.8 |  | 
N#CC[C@H](C1CCCC1)n1cc(-c2ncnc3[nH]ccc23)cn1 [Ruxolitinib (INCB018424)] |  | 1.0 |  | 
O=C(c1ccc(/C=C/c2n[nH]c3ccccc23)cc1)N1CCNCC1 [KW-2449] | 1.6 | 1.0 | 0.9 fold | 
CC[C@@H]1C(=O)N(C)c2cnc(Nc3ccc(C(=O)N[C@H]4CC[C@H](N5CCN(CC6CC6)CC5)CC4)cc3OC)nc2N1C(C)C [Volasertib (BI-6727)] | 0.2 | 0.4 | 68.5 fold | 
CCN(CC)CCNC(=O)c1c(C)[nH]c(/C=C2\C(=O)Nc3ccc(F)cc32)c1C [Sunitinib] |  | 1.0 |  | 
CSc1cccc(Nc2ncc3cc(-c4c(Cl)cccc4Cl)c(=O)n(C)c3n2)c1 [PD173955] | 0.9 | 1.0 | 5.1 fold | 
Nc1ncn([C@@H]2O[C@H](CO)[C@@H](O)[C@H]2O)c(=O)n1 [Azacytidine] | 1.1 | 1.0 | 266.4 fold | 
NC(=O)c1cnc(N[C@@H]2CCCC[C@@H]2N)nc1Nc1cccc(-n2nccn2)c1 [PRT062607] | 8.1 | 1.0 | 265.0 fold | 
CCc1nc(C(N)=O)c(Nc2ccc(N3CCC(N4CCN(C)CC4)CC3)c(OC)c2)nc1NC1CCOCC1 [Gilteritinib (ASP-2215)] | 0.2 |  | 1.3 fold | 
CCn1c(-c2nonc2N)nc2c(C#CC(C)(C)O)ncc(OC[C@H]3CCCNC3)c21 [GSK690693] | 0.165 | 1.0 | 1.1 fold | 
Cn1nccc1Nc1nccc(-c2ccn([C@H](CO)c3ccc(Cl)c(F)c3)c(=O)c2)n1 [GDC-0994] |  | 1.0 |  | 
COc1cc(N2CCC(N3CCN(C)CC3)CC2)ccc1Nc1ncc(Cl)c(Nc2ccccc2S(=O)(=O)C(C)C)n1 [NVP-TAE684] | 0.55 | 1.0 | 0.755 fold | 
COc1cc(Nc2c(C#N)cnc3cc(OCCCN4CCN(C)CC4)c(OC)cc23)c(Cl)cc1Cl [Bosutinib (SKI-606)] | 15.8 | 1.0 | 29.6 fold | 
Cc1ccc2nc(NC(=O)CSc3nc4c(c(=O)n3-c3ccccc3)SCC4)sc2c1 [IWP2] |  | 1.0 |  | 
CO[C@H]1C[C@@H]2CC[C@@H](C)[C@@](O)(O2)C(=O)C(=O)N2CCCC[C@H]2C(=O)O[C@H]([C@H](C)C[C@@H]2CC[C@@H](O)[C@H](OC)C2)CC(=O)[C@H](C)/C=C(\C)[C@@H](O)[C@@H](OC)C(=O)[C@H](C)C[C@H](C)/C=C/C=C/C=C/1C [Rapamycin] |  | 1.0 |  | 
